Source: ChEMBL document CHEMBL1201862, “PubChem BioAssay data set” (2004)
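Cultured in 96-well plates, cells were exposed to test compound for 48 hours across five concentrations. GI50 is the concentration that inhibits growth by half.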 Calls of active or inactive are those of the source. No stated cut-off is given here; in the data, active = GI50 up to about 1.1 µM and inactive = higher.

Key:
Assay in all cases: NCI anticancer screen, dose series, 48 h
SN12C = system: SN12C
SK-MEL-28 = system: SK-MEL-28
SF-268 = system: SF-268
HCT-116 = system: HCT-116
HT-29 = system: HT-29
NCI-H23 = system: NCI-H23
U-251 = system: U-251
ACHN = system: ACHN
SNB-19 = system: SNB-19
NCI-H522 = system: NCI-H522
SK-MEL-5 = system: SK-MEL-5
K562 = system: K562
NCI-H226 = system: NCI-H226
SR = system: SR
Malme-3M = system: Malme-3M
OVCAR-4 = system: OVCAR-4
M14 = system: M14
UACC-257 = system: UACC-257
HOP-92 = system: HOP-92

Measured: GI50

Cc1nc2ccccc2c(=O)n1/N=C(\N=N\c1ccc(Cl)cc1)c1ccc(N(C)C)cc1
inactive: SN12C 56.9 µM | SK-MEL-28 26.2 µM | SF-268 32.7 µM | HCT-116 46.1 µM | HT-29 > 100 µM | NCI-H23 72.4 µM | U-251 > 10 µM | ACHN > 100 µM | SNB-19 48 µM | NCI-H522 38.7 µM | SK-MEL-5 54.6 µM | K562 36.6 µM

Cc1ccc(NC(=O)CC/C(CC(=O)C(C)(C)C)=N/NC(=O)C[N+](C)(C)C)cc1C
inactive: NCI-H226 > 100 µM | SN12C > 100 µM | SK-MEL-28 > 100 µM | SF-268 > 100 µM | HCT-116 > 100 µM | SR 84.1 µM | HT-29 > 100 µM | NCI-H23 > 100 µM | U-251 > 100 µM | ACHN > 100 µM | SNB-19 > 100 µM | Malme-3M > 100 µM | SK-MEL-5 > 100 µM | OVCAR-4 > 100 µM | M14 > 100 µM | UACC-257 > 100 µM | K562 > 100 µM

CCN(CC)CCCC(C)Nc1ccnc2ccc3nn(C)nc3c12 (stereo unspecified)
inactive: NCI-H226 39.6 µM | SN12C 38.9 µM | SF-268 > 100 µM | HCT-116 26.2 µM | SR 32.8 µM | HT-29 26.5 µM | NCI-H23 > 100 µM | U-251 65.6 µM | ACHN 65.3 µM | SNB-19 > 100 µM | Malme-3M 50.6 µM | SK-MEL-5 > 100 µM | M14 23.7 µM | UACC-257 36 µM | K562 23.4 µM

C=C(CO)CC(/C=C(\C)CC/C=C(\C)CCl)OC(C)=O (stereo unspecified)
inactive: NCI-H226 > 100 µM | SN12C > 100 µM | SK-MEL-28 > 100 µM | HOP-92 5.7 µM | SF-268 > 100 µM | HCT-116 > 100 µM | HT-29 > 100 µM | NCI-H23 > 100 µM | U-251 > 100 µM | ACHN > 100 µM | SNB-19 > 100 µM | NCI-H522 > 100 µM | SK-MEL-5 > 100 µM | OVCAR-4 > 100 µM | M14 > 100 µM | K562 > 100 µM

O=C(/C=C/c1ccc(Cl)c(Cl)c1)c1ccc(F)cc1
inactive: NCI-H226 33.1 µM | SN12C 22.5 µM | SK-MEL-28 18.6 µM | HOP-92 32.2 µM | SF-268 28.2 µM | HCT-116 7.67 µM | HT-29 13.3 µM | NCI-H23 29.8 µM | U-251 13 µM | ACHN 17.8 µM | SNB-19 16.8 µM | NCI-H522 4.45 µM | Malme-3M 34.3 µM | SK-MEL-5 19.9 µM | OVCAR-4 19.2 µM | M14 16.9 µM | UACC-257 23.8 µM | K562 4.33 µM

Nc1c(C(=O)Nc2ccccc2)[n+]([O-])c2ccccc2[n+]1[O-]
inactive: NCI-H226 23.9 µM | SN12C 14.8 µM | SK-MEL-28 17.8 µM | HOP-92 16.7 µM | SF-268 25.1 µM | HT-29 16.6 µM | NCI-H23 12.5 µM | U-251 12.9 µM | ACHN 16.3 µM | SNB-19 15.5 µM | NCI-H522 2.09 µM | Malme-3M > 10 µM | SK-MEL-5 14.3 µM | OVCAR-4 17.6 µM | M14 15.6 µM | UACC-257 17.9 µM | K562 17.1 µM

O=C(Cn1ccnc1[N+](=O)[O-])NCc1ccc(F)cc1
inactive: NCI-H226 40.2 µM | SN12C > 100 µM | SK-MEL-28 > 100 µM | HOP-92 > 100 µM | SF-268 > 100 µM | HT-29 > 100 µM | NCI-H23 > 100 µM | U-251 > 100 µM | ACHN > 100 µM | SNB-19 > 100 µM | NCI-H522 > 100 µM | Malme-3M > 100 µM | SK-MEL-5 > 100 µM | OVCAR-4 > 100 µM | M14 > 100 µM | UACC-257 > 100 µM | K562 > 100 µM

CC1=C(C(=O)CC(=O)C(=O)Nc2ccccc2)Sc2ccccc2N1
inactive: NCI-H226 > 100 µM | SN12C > 100 µM | SK-MEL-28 > 100 µM | HOP-92 2.84 µM | SF-268 > 100 µM | HCT-116 > 100 µM | HT-29 > 100 µM | NCI-H23 > 100 µM | U-251 > 100 µM | ACHN > 100 µM | SNB-19 > 100 µM | NCI-H522 > 100 µM | Malme-3M > 100 µM | SK-MEL-5 > 100 µM | OVCAR-4 > 100 µM | M14 > 100 µM | UACC-257 > 100 µM | K562 > 100 µM

Cc1cc(N(CCC#N)CCC#N)ccc1/C=C(/NC(=O)/C=C/c1ccccc1)C(N)=O
inactive: NCI-H226 > 100 µM | SN12C > 100 µM | SK-MEL-28 > 100 µM | SF-268 > 100 µM | HCT-116 > 100 µM | HT-29 > 100 µM | NCI-H23 > 100 µM | U-251 > 100 µM | ACHN > 100 µM | SNB-19 > 100 µM | NCI-H522 13.8 µM | Malme-3M > 100 µM | SK-MEL-5 > 100 µM | M14 > 100 µM | UACC-257 > 100 µM | K562 62.1 µM

CCOc1ccc(NC(=O)C2=C(C)NC(C)=C(C(=O)Nc3ccc(OCC)cc3)C2c2ccc(O)c(OC)c2)cc1
inactive: NCI-H226 40.3 µM | SN12C 86.3 µM | SK-MEL-28 53.2 µM | HOP-92 20.4 µM | SF-268 > 100 µM | HT-29 > 100 µM | NCI-H23 > 100 µM | U-251 55.6 µM | ACHN 55.1 µM | SNB-19 > 100 µM | NCI-H522 56.6 µM | Malme-3M 64.1 µM | SK-MEL-5 46 µM | OVCAR-4 36.9 µM | M14 > 100 µM | UACC-257 47.8 µM | K562 40.8 µM

CC1C(O)=C(O)c2ccccc2N1O (stereo unspecified)
inactive: NCI-H226 37.4 µM | SN12C > 100 µM | SK-MEL-28 > 100 µM | HOP-92 31.9 µM | SF-268 > 100 µM | HCT-116 49.8 µM | HT-29 12.2 µM | NCI-H23 54.7 µM | U-251 > 100 µM | ACHN > 100 µM | SNB-19 > 100 µM | NCI-H522 25.1 µM | Malme-3M > 100 µM | SK-MEL-5 > 100 µM | OVCAR-4 > 100 µM | M14 > 100 µM | UACC-257 83.2 µM | K562 38.7 µM

Cn1c2c(c3ccccc31)C1CCCCC1C1C(=O)NC(=O)C21 (stereo unspecified)
inactive: NCI-H226 21.6 µM | SN12C 33.2 µM | SK-MEL-28 88.9 µM | SF-268 70.1 µM | SR 32.1 µM | HT-29 33.1 µM | NCI-H23 > 100 µM | U-251 > 100 µM | ACHN 35.2 µM | SNB-19 > 100 µM | Malme-3M 32.1 µM | SK-MEL-5 45 µM | OVCAR-4 56.5 µM | M14 57.9 µM | K562 40.6 µM
